Experimental data from BindingDB's records for doi:10.1126/science.279.5347.77 (Abbott Laboratories, 1998).
pKi: −log10 of the molar value.

Target: Neuronal acetylcholine receptor subunit alpha-4 (Rattus norvegicus, UniProt P09483)
Sequence (P09483 whole entry): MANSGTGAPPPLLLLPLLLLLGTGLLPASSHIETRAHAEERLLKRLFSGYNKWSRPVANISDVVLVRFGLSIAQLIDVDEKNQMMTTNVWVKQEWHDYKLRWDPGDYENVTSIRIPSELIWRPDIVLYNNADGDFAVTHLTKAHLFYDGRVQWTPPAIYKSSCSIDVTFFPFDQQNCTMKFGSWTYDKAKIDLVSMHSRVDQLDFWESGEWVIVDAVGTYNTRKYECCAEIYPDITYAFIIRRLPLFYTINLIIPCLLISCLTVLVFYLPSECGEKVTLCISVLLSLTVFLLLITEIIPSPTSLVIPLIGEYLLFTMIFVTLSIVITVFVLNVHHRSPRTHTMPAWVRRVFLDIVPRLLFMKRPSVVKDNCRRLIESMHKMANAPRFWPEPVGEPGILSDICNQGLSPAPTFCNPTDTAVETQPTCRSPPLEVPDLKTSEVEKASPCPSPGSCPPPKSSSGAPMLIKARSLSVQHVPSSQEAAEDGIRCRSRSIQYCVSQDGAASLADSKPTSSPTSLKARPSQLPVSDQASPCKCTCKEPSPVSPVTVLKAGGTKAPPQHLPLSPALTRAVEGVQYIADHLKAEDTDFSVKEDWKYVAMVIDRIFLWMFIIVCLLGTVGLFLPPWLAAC

Clc1ccc(OC[C@@H]2CCN2)cn1
pKi: 10.52
